According to patent publication EP4592291A1, “USE OF PEMETREXED NEAR-INFRARED FLUORESCENT MOLECULE TARGETING ALPHA-TYPE FOLATE RECEPTOR AS FLUORESCENT TRACER” (Nanjing Nuoyuan Medical Devices Co., Ltd, priority 2022, dated 2024):

Assays:
[1] = system: A549 tumor-bearing mice with low folate receptor α expression; experiment: In vivo near-infrared imaging of tumor-bearing mice, low folate receptor α expression; settings: tail vein injection, dose of 10 nm, after 2 h
Method: (§1) (2) The pemetrexed near-infrared fluorescent molecule was used for specifically recognizing non-small lung cancer tissues with high folate receptor α expression: the pemetrexed near-infrared fluorescent tracer was administrated to H1299 and A549 tumor-bearing mice via tail vein injection at a dose of 10 nm. After 2 h, imaging effects were observed through an animal imaging instrument and tissue biological distribution of mice was analyzed.

[2] = system: cell line RAW264.7 with high folate receptor β expression; experiment: Confocal cell imaging of tracer uptake, cell line with high folate receptor β expression; type: cell-based; settings: RAW264.7, 100 nM tracer, incubated 1 h
Method: (§2) 4. In order to verify the effect of the present disclosure, the following verification experiment was conducted: • (1) Use of a pemetrexed near-infrared fluorescent molecule in the aspect of differentiating a tumor with high folate receptor α expression from inflammation, that is, specific recognition of the pemetrexed near-infrared fluorescent molecule on a cell line with high folate receptor α expression: a cell line H1299 with high folate receptor α expression, a cell line A549 with low folate receptor α expression and a cell line RAW264.7 with high folate receptor β expression were selected. The cells were cultured in a Roswell Park Memorial Institute (RPPMI) culture medium containing 10% fetal bovine serum (FBS) and 1% […] in moist air containing 5% CO2 and 95% air at 37°C. The cells were incubated for 1 h in a confocal vessel by utilizing a 100 nM pemetrexed near-infrared fluorescent tracer. The cells after incubation were washed with PBS, stained with DPAI, fixed with paraformaldehyde and then photographed.

[3] = system: cell line H1299 with high folate receptor α expression; experiment: Confocal cell imaging of tracer uptake, cell line with high folate receptor α expression; type: cell-based; settings: 100 nM tracer, incubated 1 h
Method: as §2

[4] = system: inflammatory tissue slice with high folate receptor β expression; experiment: Fluorescence of inflammatory tissue slices, H1299 tumor plus peritonitis mouse model; type: in vivo; settings: H1299 tumor-bearing mouse with peritonitis, FIG. 7
Excerpt: (§3) The establishment of the inflammation model was verified by utilizing immunohistochemistry slices. […] By utilizing different specificities to different folate receptor subtypes, the tumors are effectively differentiated from the inflammatory tissues.

[5] = system: non-small cell lung cancer slice with high folate receptor α expression; experiment: Fluorescence of tumor slices, H1299 tumor plus peritonitis mouse model; type: in vivo; settings: H1299 tumor-bearing mouse with peritonitis, FIG. 6
Excerpt: as §3

[6] = system: cell line A549 with low folate receptor α expression; experiment: Confocal cell imaging of tracer uptake, cell line with low folate receptor α expression; type: cell-based; settings: folate receptor α negative A549 cell, 100 nM tracer, incubated 1 h
Method: as §2

[7] = system: H1299 tumor-bearing mice with high folate receptor α expression; experiment: In vivo near-infrared imaging of tumor-bearing mice, high folate receptor α expression; settings: tail vein injection, dose of 10 nm, after 2 h
Method: as §1

## CC1(C)C(=CC=C2CCCC(C=CC3=[N+](CCCCS(=O)(=O)[O-])c4ccc(S(=O)(=O)O)cc4C3(C)C)=C2Oc2ccc(C[C@H](NC(=O)c3ccc(CCc4c[nH]c5[nH]c(N)nc(=O)c45)cc3)C(=O)O)cc2)N(CCCCS(=O)(=O)O)c2ccc(S(=O)(=O)O)cc21
[1]
  targeting effect (imaging): not detected
[2]
  fluorescence in the cell: not detected
[3]
  tracer fluorescence in the cell (internalization): seen in the entire cytoplasm
[4]
  fluorescence of tissue slice: almost has no fluorescence
[5]
  fluorescence intensity of tissue slice: relatively high intensity
[6]
  tracer fluorescence in the cell (internalization): not observed
[7]
  specific recognition of tumor (imaging effect): capable of specifically recognizing
  tumor background-to-signal ratio: good
